Our source for the IC50 values is ChEMBL document CHEMBL1130164 (J Med Chem, 1997).

The structures appear in SMILES notation.

Test [1] addresses cAMP-dependent protein kinase catalytic subunit alpha (Homo sapiens, UniProt P17612). As to the kind of experiment: Inhibitory concentration against recombinant human cAMP-dependent Protein kinase A.
For test [2], the target named is T1, Protein kinase C beta type (Homo sapiens, UniProt P05771). As to the kind of experiment: Inhibitory concentration against recombinant human Protein kinase C beta 1 isozyme.
In test [3] the target is Protein kinase C delta type (Homo sapiens, UniProt Q05655). The experiment in a line: Inhibitory concentration against recombinant human Protein kinase C delta isozyme.
Test [4] has as its target Protein kinase C gamma type (Homo sapiens, UniProt P05129). The experiment in a line: Inhibitory concentration against recombinant human Protein kinase C gamma isozyme.
For test [5], the target named is T1, Protein kinase C beta type. As to the kind of experiment: Inhibitory concentration against recombinant human Protein kinase C beta 2 isozyme.
The target in test [6] is Protein kinase C alpha type (Homo sapiens, UniProt P17252). The experiment in a line: Inhibitory concentration against recombinant human Protein kinase C alpha isozyme.
In test [7] the target is T2, Protein kinase C epsilon type (Homo sapiens, UniProt Q02156).
T2 sequence (Q02156 whole entry): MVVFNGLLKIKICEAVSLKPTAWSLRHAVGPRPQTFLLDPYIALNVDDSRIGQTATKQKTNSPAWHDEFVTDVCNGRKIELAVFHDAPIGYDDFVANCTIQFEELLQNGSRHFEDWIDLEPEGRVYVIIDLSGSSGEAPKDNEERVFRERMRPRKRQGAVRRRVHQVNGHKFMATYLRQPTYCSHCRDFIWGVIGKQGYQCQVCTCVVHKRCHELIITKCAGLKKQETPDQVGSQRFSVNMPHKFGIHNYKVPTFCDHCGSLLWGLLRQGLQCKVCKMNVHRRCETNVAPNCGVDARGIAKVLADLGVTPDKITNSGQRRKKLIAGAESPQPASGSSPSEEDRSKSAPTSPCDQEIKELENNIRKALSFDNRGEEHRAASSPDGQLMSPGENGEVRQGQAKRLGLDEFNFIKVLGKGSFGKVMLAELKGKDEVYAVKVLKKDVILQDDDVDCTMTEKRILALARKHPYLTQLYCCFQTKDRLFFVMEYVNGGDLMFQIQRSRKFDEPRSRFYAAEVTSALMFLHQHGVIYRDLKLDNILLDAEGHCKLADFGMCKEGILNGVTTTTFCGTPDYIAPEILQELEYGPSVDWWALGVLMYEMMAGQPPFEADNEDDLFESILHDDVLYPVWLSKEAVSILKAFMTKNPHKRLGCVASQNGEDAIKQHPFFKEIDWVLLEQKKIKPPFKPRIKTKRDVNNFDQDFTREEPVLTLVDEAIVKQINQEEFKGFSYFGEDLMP
As to the kind of experiment: Inhibitory concentration against recombinant human Protein kinase C epsilon isozyme.

The target of test [8] is Protein kinase C eta type (Homo sapiens, UniProt P24723). The experiment in a line: Inhibitory concentration against recombinant human Protein kinase C eta isozyme.
The target in test [9] is T3, Protein kinase C zeta type (Homo sapiens, UniProt Q05513).
T3 sequence (Q05513 whole entry): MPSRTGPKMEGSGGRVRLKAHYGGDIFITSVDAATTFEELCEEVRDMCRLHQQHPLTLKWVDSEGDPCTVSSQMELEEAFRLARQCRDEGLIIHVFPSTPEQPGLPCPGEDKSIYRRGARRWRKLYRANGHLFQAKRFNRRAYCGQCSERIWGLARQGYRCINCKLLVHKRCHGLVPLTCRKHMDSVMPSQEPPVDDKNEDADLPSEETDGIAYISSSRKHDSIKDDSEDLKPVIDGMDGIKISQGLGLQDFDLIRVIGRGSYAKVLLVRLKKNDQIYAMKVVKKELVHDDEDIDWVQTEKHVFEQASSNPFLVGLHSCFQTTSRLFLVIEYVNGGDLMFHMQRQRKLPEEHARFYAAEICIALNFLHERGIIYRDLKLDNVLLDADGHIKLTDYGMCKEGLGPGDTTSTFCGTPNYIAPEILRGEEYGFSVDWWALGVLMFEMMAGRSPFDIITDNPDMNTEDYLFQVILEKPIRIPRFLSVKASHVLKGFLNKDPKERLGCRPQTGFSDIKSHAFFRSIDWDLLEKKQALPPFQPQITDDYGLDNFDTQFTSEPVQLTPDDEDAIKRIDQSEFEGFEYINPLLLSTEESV
As to the kind of experiment: Inhibitory concentration against recombinant human Protein kinase C zeta isozyme.

Sequence of Protein kinase C eta type (P24723 whole entry): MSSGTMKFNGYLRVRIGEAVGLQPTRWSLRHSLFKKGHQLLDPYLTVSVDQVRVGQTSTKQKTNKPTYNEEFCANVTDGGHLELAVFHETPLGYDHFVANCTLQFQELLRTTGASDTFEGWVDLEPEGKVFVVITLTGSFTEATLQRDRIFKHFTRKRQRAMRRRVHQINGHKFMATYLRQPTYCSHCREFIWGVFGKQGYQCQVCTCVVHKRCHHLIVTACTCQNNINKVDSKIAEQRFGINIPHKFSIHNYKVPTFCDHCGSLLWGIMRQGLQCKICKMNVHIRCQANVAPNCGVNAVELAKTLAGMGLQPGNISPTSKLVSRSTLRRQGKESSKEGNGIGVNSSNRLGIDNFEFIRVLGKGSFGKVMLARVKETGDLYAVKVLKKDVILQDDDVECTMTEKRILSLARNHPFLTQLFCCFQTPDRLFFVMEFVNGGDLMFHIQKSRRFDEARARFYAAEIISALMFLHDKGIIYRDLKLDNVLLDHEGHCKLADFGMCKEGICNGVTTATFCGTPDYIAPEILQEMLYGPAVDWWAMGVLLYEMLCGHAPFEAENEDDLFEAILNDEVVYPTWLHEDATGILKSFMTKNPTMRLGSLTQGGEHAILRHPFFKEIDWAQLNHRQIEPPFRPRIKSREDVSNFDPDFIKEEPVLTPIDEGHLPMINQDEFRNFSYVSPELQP
T1 sequence (P05771 whole entry): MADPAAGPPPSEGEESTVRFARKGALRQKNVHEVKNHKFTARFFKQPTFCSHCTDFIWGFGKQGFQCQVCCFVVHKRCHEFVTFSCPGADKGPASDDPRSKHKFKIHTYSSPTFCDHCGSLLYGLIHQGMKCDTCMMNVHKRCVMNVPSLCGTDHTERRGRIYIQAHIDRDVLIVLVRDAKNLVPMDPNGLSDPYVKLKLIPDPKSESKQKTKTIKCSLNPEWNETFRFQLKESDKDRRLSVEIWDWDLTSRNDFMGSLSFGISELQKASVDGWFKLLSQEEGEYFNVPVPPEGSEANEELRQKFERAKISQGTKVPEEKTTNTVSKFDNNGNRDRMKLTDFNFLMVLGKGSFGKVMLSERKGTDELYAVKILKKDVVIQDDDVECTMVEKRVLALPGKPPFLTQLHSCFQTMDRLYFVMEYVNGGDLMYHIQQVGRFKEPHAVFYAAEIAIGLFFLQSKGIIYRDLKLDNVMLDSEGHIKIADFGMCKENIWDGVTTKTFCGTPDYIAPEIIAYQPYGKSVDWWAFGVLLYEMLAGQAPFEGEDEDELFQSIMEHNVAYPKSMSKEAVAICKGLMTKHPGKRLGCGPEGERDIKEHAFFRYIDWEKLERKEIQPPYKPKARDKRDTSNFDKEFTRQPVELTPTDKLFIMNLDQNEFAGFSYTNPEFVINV
Sequence of Protein kinase C delta type (Q05655 whole entry): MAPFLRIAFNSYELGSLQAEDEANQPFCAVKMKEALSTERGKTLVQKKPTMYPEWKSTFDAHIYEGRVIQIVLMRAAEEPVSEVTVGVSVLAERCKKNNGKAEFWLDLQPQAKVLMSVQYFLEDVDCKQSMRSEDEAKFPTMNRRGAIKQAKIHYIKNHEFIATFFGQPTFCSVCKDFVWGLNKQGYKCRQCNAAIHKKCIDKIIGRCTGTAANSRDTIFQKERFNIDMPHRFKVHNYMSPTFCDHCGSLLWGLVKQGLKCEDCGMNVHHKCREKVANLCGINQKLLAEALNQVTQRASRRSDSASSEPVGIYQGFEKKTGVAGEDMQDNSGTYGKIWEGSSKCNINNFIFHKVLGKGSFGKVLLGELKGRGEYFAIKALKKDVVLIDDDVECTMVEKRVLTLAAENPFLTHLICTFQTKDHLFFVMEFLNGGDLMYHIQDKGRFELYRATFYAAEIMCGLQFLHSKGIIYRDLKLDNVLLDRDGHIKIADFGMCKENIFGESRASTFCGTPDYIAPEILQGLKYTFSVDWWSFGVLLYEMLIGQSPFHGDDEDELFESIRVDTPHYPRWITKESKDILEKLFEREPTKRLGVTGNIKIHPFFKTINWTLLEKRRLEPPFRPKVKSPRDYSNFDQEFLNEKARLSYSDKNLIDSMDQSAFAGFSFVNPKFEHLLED

By IC50 is commonly meant the concentration needed to halve the response being measured. Consider `O=C(N[C@@H]1C2CC(C3CCCC32)[C@H]1OC(=O)c1cc(O)c(C(=O)c2c(O)cccc2C(=O)O)c(O)c1)c1ccc(O)cc1` (stereo partly drawn), for which the IC50 in test [1] turned out to be 32000 nM.
As to `O=C(N[C@@H]1CCCCC[C@H]1OC(=O)c1cc(O)c(C(=O)c2c(O)cccc2C(=O)O)c(O)c1)c1ccc(O)cc1`, in test [1], the IC50 is 1400 nM.
Turning to `O=C(N[C@@H]1COCCC[C@H]1OC(=O)c1cc(O)c(C(=O)c2c(O)cccc2C(=O)O)c(O)c1)c1ccc(O)cc1`, the IC50 in test [2] was 2500 nM; in test [3] it was 90 nM; in [4], 1000 nM; in [5], 3300 nM; in test [6], 6700 nM; in test [7], 16000 nM. Moreover, the IC50 is 10 nM in test [8], 450 nM in test [1] and above 150000 nM in [9].
For `O=C(N[C@@H]1CC(O)C[C@H]1OC(=O)c1cc(O)c(C(=O)c2c(O)cccc2C(=O)O)c(O)c1)c1ccc(O)cc1` (stereo partly drawn), the IC50 in [2] is 20 nM; in test [3], 5 nM; in [4], 20 nM; in test [5], 10 nM; in [6] it was 40 nM; in test [7] it was 100 nM. The IC50 in test [8] stood at 3 nM; in [1], 130 nM.
With `CN1C2CCC1C(NC(=O)c1ccc(O)cc1)C(OC(=O)c1cc(O)c(C(=O)c3c(O)cccc3C(=O)O)c(O)c1)C2` (stereo not drawn), the IC50 in [1] is above 50000 nM.
For `NC[C@H]1C[C@@H](NC(=O)c2ccc(O)cc2)[C@H](OC(=O)c2cc(O)c(C(=O)c3c(O)cccc3C(=O)O)c(O)c2)C1`, the IC50 was 4 nM in test [2]; 6 nM in test [3]; 5 nM in test [4]; 4 nM in test [5]; 20 nM in test [6]; 30 nM in test [7]. Further, the results for the IC50 in test [8], in [1] and in test [9] were 3 nM, 170 nM and 2800 nM, respectively.
Regarding `O=C(N[C@@H]1C[C@@H](O)C[C@H]1OC(=O)c1cc(O)c(C(=O)c2c(O)cccc2C(=O)O)c(O)c1)c1ccc(O)cc1`, the IC50 in [2] was 30 nM; in [3] it was 6 nM; in test [4], 30 nM; in test [5], 20 nM; in [6] it was 50 nM; in test [7] it was 150 nM. Also, the IC50 worked out at 4 nM in test [8] and 250 nM in [1].
Regarding `CC1(C)C2CCC1(C)[C@@H](OC(=O)c1cc(O)c(C(=O)c3c(O)cccc3C(=O)O)c(O)c1)[C@@H]2NC(=O)c1ccc(O)cc1` (stereo partly drawn), the IC50 in test [2] was 310 nM; in test [3], 340 nM; in [4], 210 nM; in test [5], 80 nM; in [6], 410 nM; in test [7] it was 3600 nM. For the same molecule, the IC50 in test [8] was 310 nM; in test [1], 26000 nM; in [9], above 50000 nM.
Take `N[C@@H]1C[C@@H](NC(=O)c2ccc(O)cc2)[C@H](OC(=O)c2cc(O)c(C(=O)c3c(O)cccc3C(=O)O)c(O)c2)C1`: the IC50 is 4 nM in test [2]; 5 nM in test [3]; 5 nM in [4]; 2 nM in test [5]; 20 nM in test [6]; 10 nM in test [7]. In addition, the IC50 in test [8] worked out at 3 nM; in test [1], 50 nM; in [9], 1200 nM.
Regarding `CC(=O)N1C[C@@H](NC(=O)c2ccc(O)cc2)[C@H](OC(=O)c2cc(O)c(C(=O)c3c(O)cccc3C(=O)O)c(O)c2)C1`, the IC50 was 710 nM in test [2]; 60 nM in [3]; 390 nM in test [4]; 820 nM in test [5]; 1200 nM in test [6]; 3700 nM in [7]. For the same molecule, the values for the 50% inhibitory concentration (IC50) in test [8], in test [1] and in [9] were 30 nM, 3600 nM and above 150000 nM, respectively.
As to `O=C(N[C@@H]1CNC[C@H]1OC(=O)c1cc(O)c(C(=O)c2c(O)cccc2C(=O)O)c(O)c1)c1ccc(O)cc1`, in test [1], the IC50 came to 70 nM.
Turning to `O=C(N[C@@H]1CNCC[C@H]1OC(=O)c1cc(O)c(C(=O)c2c(O)cccc2C(=O)O)c(O)c1)c1ccc(O)cc1`, the IC50 in test [8] stood at 90 nM; in [1] it was 350 nM.
With `O=C(N[C@@H]1C[C@@H](CO)C[C@H]1OC(=O)c1cc(O)c(C(=O)c2c(O)cccc2C(=O)O)c(O)c1)c1ccc(O)cc1`, the half-maximal inhibitory concentration (IC50) in [2] stood at 60 nM; in [3] it was 20 nM; in test [4], 50 nM; in test [5], 20 nM; in test [6] it was 80 nM; in test [7], 270 nM. Moreover, the IC50 in test [8] is 20 nM; in test [1], 220 nM.
`O=C(N[C@@H]1C[C@H](CO)C[C@H]1OC(=O)c1cc(O)c(C(=O)c2c(O)cccc2C(=O)O)c(O)c1)c1ccc(O)cc1`: the IC50 in test [2] worked out at 4 nM; in test [3] it was 4 nM; in test [4], 5 nM; in test [5], 3 nM; in [6], 10 nM; in test [7], 160 nM. For the same molecule, the IC50 in test [8] came out at 2 nM; in test [1], 230 nM.
Take `O=C(N[C@@H]1CSCCC[C@H]1OC(=O)c1cc(O)c(C(=O)c2c(O)cccc2C(=O)O)c(O)c1)c1ccc(O)cc1`: the IC50 in test [2] worked out at 3800 nM; in test [3] it was 90 nM; in test [4], 1000 nM; in [5], 2400 nM; in test [6], 3300 nM; in [7] it was 5900 nM. Also, the figures for the IC50 in [8] and in test [1] were 100 nM and 7500 nM, respectively.
As for `CC(C)N1C[C@@H](NC(=O)c2ccc(O)cc2)[C@H](OC(=O)c2cc(O)c(C(=O)c3c(O)cccc3C(=O)O)c(O)c2)C1`, the IC50 is 60 nM in [2]; 40 nM in test [3]; 90 nM in test [4]; 70 nM in [5]; 240 nM in [6]; 50 nM in test [7]. Besides, the IC50 was 4 nM in test [8] and below 330 nM in [1].
As for `O=C(N[C@H]1CNCCC[C@@H]1OC(=O)c1cc(O)c(C(=O)c2c(O)cccc2C(=O)O)c(O)c1)c1ccc(O)cc1`, the IC50 in [2] stood at 500 nM; in test [3], 420 nM; in [4], 400 nM; in [5] it was 880 nM; in test [6], 3000 nM; in test [8], 260 nM. Further, in [9], the 50% inhibitory concentration (IC50) was above 150000 nM.
On to `O=C(N[C@@H]1CN2CCC(CC2)[C@H]1OC(=O)c1cc(O)c(C(=O)c2c(O)cccc2C(=O)O)c(O)c1)c1ccc(O)cc1`, for which the IC50 in [2] turned out to be 26 nM; in test [3] it was 110 nM; in test [4], 140 nM; in test [5], 69 nM; in [6], 410 nM; in [7] it was 170 nM. The IC50 came to 26 nM in test [8] and 1700 nM in test [1].
Take `O=C(N[C@@H]1C2CCC(C2)[C@H]1OC(=O)c1cc(O)c(C(=O)c2c(O)cccc2C(=O)O)c(O)c1)c1ccc(O)cc1` (stereo partly drawn): the IC50 came to 50 nM in test [2]; 20 nM in [3]; 40 nM in [4]; 30 nM in [5]; 60 nM in test [6]; 30 nM in test [7]. The IC50 was determined as 20 nM in [8] and 1900 nM in test [1].
Take `O=C(NC1CNCCCC1OC(=O)c1cc(O)c(C(=O)c2c(O)cccc2C(=O)O)c(O)c1)c1ccc(O)cc1` (racemic): the IC50 in test [3] stood at 20 nM; in test [6] it was 70 nM; in test [9], 3500 nM.
With `O=C(N[C@@H]1CNCCC[C@H]1OC(=O)c1cc(O)c(C(=O)c2c(O)cccc2C(=O)O)c(O)c1)c1ccc(O)cc1` [BALANOL], the IC50 in test [3] stood at 4 nM; in [4] it was 20 nM; in test [9], 7400 nM.
